Test results taken from patent US6660283B2, “Use of cinnamic acid, or of at least one of its derivatives in a cosmetic composition” (Societe L'Oreal S.A., priority 1997, dated 2003).

Test system: reconstructed human epidermis
Assay: Incorporation of 14C acetate into total lipids of reconstructed human epidermis (Skinethic)
Format: cell-based
Settings: for percentage of stimulation (incorporation of 14C acetate, lipid synthesis): relative to untreated cells = 100
Experimental: The study is carried out by measuring the incorporation of carbon-14-labelled acetate in models of reconstructed human epidermis sold by the company Skinethic, in which the composition of total lipids is close to that of normal human epidermis.
The reconstructed human epidermis cultures are prepared according to the supplier's recommendations.
Cinnamic acid, at concentrations of 10^−5, 10^−6 and 10^−7 M, is placed in contact for 72 hours with reconstructed human epidermes after they have been cultured for 14 days under the conditions recommended by the supplier. The labelling with ^14C acetate (sodium [2-^14C]-acetate sold by Amersham, 59 mCi/mmol) is carried out 24 hours after placing the test product in contact with the culture, i.e. during the final 48 hours of culturing, at a rate of 0.5 μCi of ^14C acetate per culture.
At the end of culturing, after washing the epidermes with phosphate buffer (PBS), the epidermides are dissociated and the cells are lysed with 0.5M perchloric acid on ice. The lysates are then extracted with a methanol/chloroform mixture (2:1), centrifuged and the pellets obtained are extracted again under the same conditions as before. The lipids are separated out by addition of PBS and chloroform (Blight-Byer technique). The organic phase containing the lipids is taken off and the radioactive incorporated in this phase is determined by liquid scintillation. The organic phase is then dried under a stream of nitrogen. Thin layer plate chromatography on Merck K60 plates is carried out using, as eluent, a chloroform/methanol/water mixture (50/18/2.6) to separate the phospholipids, or a hexane/ether/acetic acid mixture (15/5.6/0.19) to separate the neutral lipids.
The plates are then autoradiographed for 24 hours and the chromatograms are analysed by densitometry using the One-D-Scan software from the company Scanalytics.
The results are evaluated relative to a control consisting of cells which have not been treated with cinnamic acid.
A positive control (10^−4 M trifluoperazine), which is known to stimulate lipid synthesis, and a negative control (10^−6 M retinoic acid), which is known to inhibit lipid synthesis, are introduced into the test as reference.

Row | Structure (SMILES) | percentage of stimulation (incorporation of 14C acetate, lipid synthesis) (10^−5 M, 72 hours contact) [%] | percentage of stimulation (incorporation of 14C acetate, lipid synthesis) (10^−6 M, 72 hours contact) [%] | percentage of stimulation (incorporation of 14C acetate, lipid synthesis) (10^−7 M, 72 hours contact) [%] | effect on incorporation of 14C acetate (lipid synthesis), in words (reconstructed human epidermis, 10^−5 to 10^−7 M) | percentage of stimulation (incorporation of 14C acetate, lipid synthesis) (10^−4 M) [%]
1 | O=C(O)C=Cc1ccccc1 [cinnamic acid] | 113 | 109 | 124 | significantly stimulates | –
2 | CC1=C(/C=C/C(C)=C/C=C/C(C)=C/C(=O)O)C(C)(C)CCC1 [retinoic acid, reference compound] | – | 82 | – | – | –
3 | CN1CCN(CCCN2c3ccccc3Sc3ccc(C(F)(F)F)cc32)CC1 [trifluoroperazine, trifluoperazine, reference compound] | – | – | – | – | 122
